Two substances from patent publication US6492377B1, “Imidazotriazolopyrimidines with adenosine-antagonistic activity” (Boehringer Ingelheim Pharma KG, priority 1998, dated 2002) can be followed below.

The target of experiment [1] is T1, human A3-adenosine receptor (Homo sapiens, UniProt P0DMS8).
T1 sequence (P0DMS8 1-318): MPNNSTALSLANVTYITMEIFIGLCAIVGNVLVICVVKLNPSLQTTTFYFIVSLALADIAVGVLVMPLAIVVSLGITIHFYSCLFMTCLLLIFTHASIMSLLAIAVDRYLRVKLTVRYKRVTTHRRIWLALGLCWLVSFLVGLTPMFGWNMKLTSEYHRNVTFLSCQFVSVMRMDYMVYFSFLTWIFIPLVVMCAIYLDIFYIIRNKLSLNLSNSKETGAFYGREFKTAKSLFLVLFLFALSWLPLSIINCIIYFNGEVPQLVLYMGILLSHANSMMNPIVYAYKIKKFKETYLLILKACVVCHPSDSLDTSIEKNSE
Briefly: KiA3 (human) receptor binding. How it is done:
The A3 receptor binding values given hereinafter were determined analogously to […]. “Molecular cloning and characterization of the human A3-adenosine receptor” (Proc. Natl. Acad. Sci. USA 90, 10365-10369, 1993).

The target in experiment [2] is T2, human A1 adenosine Receptor (Homo sapiens, UniProt P30542).
T2 sequence (P30542 1-326): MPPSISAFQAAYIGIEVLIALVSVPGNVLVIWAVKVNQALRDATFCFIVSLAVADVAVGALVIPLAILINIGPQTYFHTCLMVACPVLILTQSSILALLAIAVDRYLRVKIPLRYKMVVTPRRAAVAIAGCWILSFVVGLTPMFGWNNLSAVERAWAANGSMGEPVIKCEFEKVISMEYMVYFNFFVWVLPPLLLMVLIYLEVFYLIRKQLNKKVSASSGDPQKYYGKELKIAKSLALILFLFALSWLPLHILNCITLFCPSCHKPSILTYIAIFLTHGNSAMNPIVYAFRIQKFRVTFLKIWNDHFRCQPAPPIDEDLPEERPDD
Kind of experiment: KiA1 (human) receptor binding. How it is done: The receptor binding values described hereinafter were determined analogously to Ensinger et al. in “Cloning and functional characterisation of human A1 adenosine Receptor—Biochemical and Biophysical Communications, Vol 187, No. 2, 919-926, 1992”.
The Table which follows contains KiA1 (human) receptor binding values.

What is called Ki is the equilibrium dissociation constant of an inhibitor or competing ligand from its target.

For the substance “4-Ethyl-7-methyl-2-(2-phenylethyl)-imidazo[4.5-e]-s-triazolo[1.5-a]pyrimidin-5-one [Example 81]”, the affinity in experiment [1] corresponds to a Ki of 7.2 nM.

As to “4-Ethyl-2-(2-phenylethyl)-7-n-propyl-imidazo[4.5-e]-s-triazolo[1.5-a]pyrimidin-5-one [Example 83]”, the Ki in experiment [2] worked out at 8.1 nM.
